Laboratory results published in EP0011663A1, “Toilet and dental preparations and their use for oral and dental hygiene” (UNILEVER PLC, priority 1978, dated 1980).
“Also recorded” adds a separate entry of the source. Read-outs that look alike come from different tables or passages of the source. Marks after values point to notes of the source that are not given here.

What was measured:
plaque = conditions: clinical data, zinc salt alone; cited from earlier work
in vitro plaque [1] = assay: in vitro artificial plaque assay on saliva-coated aluminium plummets (Tests 1, 3, 4 and general statements); format: cell-based; conditions: for minimum amount of the metal compound necessary to result in control of plaque: at the site of formation of the plaque, under the conditions of the tests
Method: An in vitro test was used in the Tests described herein for examining and effects of chemotherapeutic agents on plaque, and was carried out in accordance with the test reported in the Journal of Dental Research, Vol. 55, February 1976, page B286, by R T Evans, P J Baker, R A Coburn and R J Genco. An assay system for producing artificial plaque was used to screen antiplaque agents rapidly under conditions which simulated those found in the oral cavity.
The in vitro plaque was formed at 37°C on uniformly- sized aluminium plummets which were first coated with saliva. The plummets were then placed in a growth medium inoculated with clinical plaque samples. After seven hours the plummets were suspended overnight in a 25;0 saliva mixture. On the second day, the plummets were immersed in a 50% saliva - 50% test compound mixture for one minute, placed in the growth medium for seven hours, retreated with the test mixture and suspended in 25% saliva overnight. The plummets were treated again on the third day and incubated in the growth medium for three hcurs. The plaques were removed from the plummets by donication into approximately six millilitres of buffer and quantitated by optical density (O.D.) in a Beckman DU spectrophotometer at 570 nm.
Positive controls were included to determine relative activity. Comparisons of antiplaque activity were then made within a given experiment. At least five replicas per compound were examined.
The experiments are conducted in the same manner, in a 15% ethanol/water media at pH 5.
The effects of 0.060% tetradecylamine (TDA) 0.05 SnCl4, and the combination of SnCl and TDA at these concentrations are examined by the artificial plaque method previously described, all with 15% ethanol, at pH 2.6.

rats = conditions: orally in rats; Seventh Issue of the Merck Index; cited from earlier work
in vitro plaque [2] = assay: in vitro artificial plaque assay, treatment on the third day eliminated (Test 2); format: cell-based; conditions: no treatment on third day
Method: An in vitro test was used in the Tests described herein for examining and effects of chemotherapeutic agents on plaque, and was carried out in accordance with the test reported in the Journal of Dental Research, Vol. 55, February 1976, page B286, by R T Evans, P J Baker, R A Coburn and R J Genco. An assay system for producing artificial plaque was used to screen antiplaque agents rapidly under conditions which simulated those found in the oral cavity. […] The assay gives reproducible, quantitative results and has the ability to distinguish between antibacterial agents which are clinically effective or non-effective as plaquae inhibitors. The in vitro plaque was formed at 37°C on uniformly- sized aluminium plummets which were first coated with saliva. The plummets were then placed in a growth medium inoculated with clinical plaque samples. After seven hours the plummets were suspended overnight in a 25;0 saliva mixture. On the second day, the plummets were immersed in a 50% saliva - 50% test compound mixture for one minute, placed in the growth medium for seven hours, retreated with the test mixture and suspended in 25% saliva overnight. The plummets were treated again on the third day and incubated in the growth medium for three hcurs. The plaques were removed from the plummets by donication into approximately six millilitres of buffer and quantitated by optical density (O.D.) in a Beckman DU spectrophotometer at 570 nm. […] Positive controls were included to determine relative activity. Comparisons of antiplaque activity were then made within a given experiment. At least five replicas per compound were examined. To test higher levels of tetradecylamine, the artificial plaque treatment previously described is eliminated on the third day to simulate infrequent use of the antiplaque products.

[3] = critical micellar concentration (CMC); format: physicochemical
[4] = amine in place of tetradecylamine, in combination with metal compounds (zinc or aluminium)
[5] = metal salt alone 0.10 % Wt./Vol., 15% ethanol/water, pH 5
[6] = cation or anion as such, by the in vitro assay
[7] = addition of CO2 to tetradecylamine

Molecule: [O-][n+]1ccccc1[S-].[O-][n+]1ccccc1[S-].[Zn+2] [zinc salt]
- reduction in plaque (plaque): about 5%

Molecule: CCCCCCCCCCN [decylamine, reference compound]
- synergistic plaque reductions (in vitro plaque [1]; [4]): do not give synergistic plaque reductions

Molecule: CCCCCCCCCCCCN(C)C [dimethyldodecylamine, reference compound]
- synergistic plaque reductions (in vitro plaque [1]; [4]): do not give synergistic plaque reductions

Molecule: CCCCCCCCCCCCCCCC[n+]1ccccc1 [CPC, cetyl pyridinium chloride, reference compound]
- Average Optical Density (in vitro plaque [1]; pH 4.1): .515

Molecule: CCCCCCCCCCCCN [Dodecylamine, reference compound]
- synergistic plaque reductions (in vitro plaque [1]; [4]): do not give synergistic plaque reductions
- synergistic plaque reductions (in vitro plaque [1]; amine in place of tetradecylamine, in combination with metal compounds (zinc or aluminium), listed as dodecylamine): not found

Molecule: CCCCCCCCCCCCCCCCN [hexadecylamine, reference compound]
- synergistic plaque reductions (in vitro plaque [1]; [4]): do not give synergistic plaque reductions; also recorded: not found

Molecule: F [fluoride]
- synergistic plaque reductions (in vitro plaque [1]): synergism has not been found; also recorded: synergism was not found

Molecule: O.O.O.O.O.O.[Cl-].[Cl-].[Co+2] [CoCl2.6H2O, reference compound]
- % Reduction (in vitro plaque [1]; [5]): -25%

Molecule: O=S(=O)(O)O [sulphate]
- synergistic plaque reductions (in vitro plaque [1]; [6]): synergism has not been found; also recorded: synergism was not found

Molecule: [Co] [cobalt]
- minimum amount of the metal compound necessary to result in control of plaque (in vitro plaque [1]): ~500 µM
- LD50 (rats): 0.3-0.9 g/kg body weight

Molecule: CCCCCCCCCCCCCCN [TDA, tetradecylamine, reference compound]
- inhibition at 0.06 % (in vitro plaque [1]; TDA 0.06 % Wt./Vol., 15% ethanol/water, pH 5, read-out: % Reduction): 19%
- inhibition at 0.06 % (in vitro plaque [1]; TDA 0.06 % Wt/Vol., 15% ethanol, pH 2.6, read-out: % Reduction): 19%
- Average Optical Density (in vitro plaque [1]; TDA .060 % Wt/Vol, 15% ethanol, pH 4.1, O.D. at 570 nm): .571
- inhibition at 0.06 % (in vitro plaque [1]; TDA .060 % Wt/Vol, 15% ethanol, pH 4.1, vs H2O control, read-out: % Reduction): 18.8%
- antiplaque activity (in vitro plaque [1]; [7]): increased
- inhibition at 0.06 % (in vitro plaque [1]; dose-response curve, tetradecylamine 0.060%, no metal present, read-out: plaque reduction): 18%
- inhibition at 0.2 % (in vitro plaque [1]; dose-response curve, tetradecylamine 0.20%, no metal present, read-out: plaque reduction): 44%
- Average Optical Density (in vitro plaque [2]; TDA .120 % Wt/Vol): .882
- inhibition at 0.12 % (in vitro plaque [2]; TDA .120 % Wt/Vol, vs H2O control, read-out: % Reduction): 20.7%
- CMC [3, 7]: lowering
- critical micellar concentration (CMC) ([3]; in combination with selected metals): lowered

Molecule: CCCCCCCCCCCCCCCCCCN(C)C [N,N'-dimethyl-octadecylamine, reference compound]
- synergistic plaque reductions (in vitro plaque [1]; [4]): do not give synergistic plaque reductions

Molecule: O.O.O.O.O.O.[Al+3].[Cl-].[Cl-].[Cl-] [AlCl3.6H2O]
- Average Optical Density (in vitro plaque [2]; AlCl3.6H2O 1.00 % Wt/Vol): 1.218
- % Reduction (in vitro plaque [2]; AlCl3.6H2O 1.00 % Wt/Vol, negative = weight gain): -9.4* %
- Average Optical Density (in vitro plaque [2]; AlCl3.6H2O .250 % Wt/Vol): 1.080
- % Reduction (in vitro plaque [2]; AlCl3.6H2O .250 % Wt/Vol, vs H2O control): 3.0%

Molecule: [Mg+2] [magnesium]
- synergistic plaque reductions (in vitro plaque [1]; [6]): have not been found to give synergistic plaque reductions; also recorded: did not give synergistic plaque reductions

Molecule: [Zn] [zinc]
- minimum amount of the metal compound necessary to result in control of plaque (in vitro plaque [1]): about 0.001 molar
- LD50 (rats): 3-4 g/kg body weight

Molecule: [Sn] [tin]
- minimum amount of the metal compound necessary to result in control of plaque (in vitro plaque [1]): ~500 µM
- LD50 (rats): about 0.05 g/kg body weight

Molecule: phosphate
- synergistic plaque reductions (in vitro plaque [1]; [6]): synergism has not been found; also recorded: synergism was not found

Molecule: O=[N+]([O-])O [nitrate]
- synergistic plaque reductions (in vitro plaque [1]): synergism has not been found; also recorded: synergism was not found

Molecule: O.O.O.O.O.O.[Cl][Ni][Cl] [NiCl2.6H2O, reference compound]
- % Reduction (in vitro plaque [1]; [5]): -17%

Molecule: [K+] [potassium]
- synergistic plaque reductions (in vitro plaque [1]; [6]): have not been found to give synergistic plaque reductions; also recorded: did not give synergistic plaque reductions

Molecule: O.O.O.O.O.[Cl][Sn]([Cl])([Cl])[Cl] [SnCl4.5H2O, reference compound]
- % Reduction (in vitro plaque [1]; SnCl4.5H2O 0.05 % Wt/Vol., 15% ethanol, pH 2.6, negative = weight gain): -8* %

Molecule: [Ni] [nickel]
- minimum amount of the metal compound necessary to result in control of plaque (in vitro plaque [1]): ~500 µM
- LD50 (rats): 0.3-0.9 g/kg body weight

Molecule: [Cl-].[Cl-].[Zn+2] [ZnCl2, reference compound]
- Average Optical Density (in vitro plaque [1]; ZnCl2 .30 % Wt/Vol, 15% ethanol, pH 4.1, O.D. at 570 nm): .766
- % Reduction (in vitro plaque [1]; ZnCl2 .30 % Wt/Vol, 15% ethanol, pH 4.1, vs H2O control, negative = weight gain): -8.0* %

Molecule: O.O.O.O=[N+]([O-])[O-].O=[N+]([O-])[O-].[Cu+2] [Cu(NO3)2.3H2O, reference compound]
- % Reduction (in vitro plaque [1]; [5]): -10%

Molecule: [Al] [aluminium]
- minimum amount of the metal compound necessary to result in control of plaque (in vitro plaque [1]): about 0.001 molar
- LD50 (rats): 3-4 g/kg body weight

Molecule: Cl [chloride]
- synergistic plaque reductions (in vitro plaque [1]; [6]): synergism has not been found; also recorded: synergism was not found

Molecule: O.O.O.O.O.O.[Cl-].[Cl-].[Cl-].[Fe+3] [FeCl3.6H2O, reference compound]
- % Reduction (in vitro plaque [1]; [5]): -38%

Molecule: [Cu] [copper]
- minimum amount of the metal compound necessary to result in control of plaque (in vitro plaque [1]): ~500 µM
- LD50 (rats): 0.3-0.9 g/kg body weight

Molecule: [Na] [sodium]
- synergistic plaque reductions (in vitro plaque [1]; [6]): have not been found to give synergistic plaque reductions; also recorded: did not give synergistic plaque reductions

Molecule: [HH] [hydrogen]
- synergistic plaque reductions (in vitro plaque [1]; [6]): have not been found to give synergistic plaque reductions; also recorded: did not give synergistic plaque reductions

Molecule: [Ca+2] [calcium]
- synergistic plaque reductions (in vitro plaque [1]): have not been found to give synergistic plaque reductions; also recorded: did not give synergistic plaque reductions

Molecule: [Fe] [iron]
- minimum amount of the metal compound necessary to result in control of plaque (in vitro plaque [1]): ~500 µM
- LD50 (rats): 0.3-0.9 g/kg body weight
